From patent publication US20090318431A1, “BENZOXAZINONE AND BENZOXAZEPINONE OXAZOLIDINONES AS ANTIBACTERIAL AGENTS” (Pfizer Inc., priority 2006, published 2009)
In brackets after ≈: the same amount, converted by molar mass.

Columns and labels:
Format in all cases: cell-based
[1] = tested on: E. faecalis MGH-2 EF 1-1; assay: in vitro antibacterial activity (MIC), E. faecalis; settings: Enterococcus faecalis, MGH2EF11, strain MGH-2 EF 1-1, lowest concentration preventing macroscopically visible growth
Source text: (§1) The in vitro antibacterial activity of the compounds of the present invention may be assessed by following procedures recommended in (1) National Committee for Clinical Laboratory Standards (January 2003), Methods for dilution antimicrobial tests for bacteria that grow aerobically, Approved Standard (6th ed), M7-A6, NCCLS, Wayne, Pa.; (2) National Committee for Clinical Laboratory Standards (March 2001), Methods for antimicrobial susceptibility testing of anaerobic bacteria, Approved Standard (5th ed), M11-A4, NCCLS, Wayne, Pa.; (3) National Committee for Clinical Laboratory Standards (Jan. 2003), MIC testing supplemental tables, M100-S13 (for use with M7-A6), NCCLS, Wayne, Pa.; and (4) Murray P R, Baron E J, Jorgensen J H, et al. Manual of Clinical Microbiology (8th ed) Washington, D.C.: American Society for Microbiology Press, 2003. The antibacterial activity can be presented in the form of MIC value. The MIC value is the lowest concentration of drug, which prevented macroscopically visible growth under the conditions of the test.

[2] = tested on: S. pneumoniae SV1 SP-3; assay: in vitro antibacterial activity (MIC), S. pneumoniae; settings: Streptococcus pneumoniae, SV1SP3, strain SV1 SP-3, lowest concentration preventing macroscopically visible growth
Source text: as §1

[3] = tested on: S. aureus UC-76 SA-1; assay: in vitro antibacterial activity (MIC), S. aureus; settings: Staphylococcus aureus, UC76, strain UC-76 SA-1, lowest concentration preventing macroscopically visible growth
Source text: as §1

Row | MIC [1] | MIC [2] | MIC [3] | Compound
1 | 4 µg/mL (≈ 11.9 µM) | 2 µg/mL (≈ 5.93 µM) | 2 µg/mL (≈ 5.93 µM) | CC(=O)NC[C@H]1CN(c2cc(F)c3c(c2)COC(=O)N3C)C(=O)O1 [Example 10, (S)—N-((3-(8-fluoro-1-methyl-2-oxo-2,4-dihydro-1H-benzo[d][1,3]oxazin-6-yl)-2-oxooxazolidin-5-yl)methyl)acetamide]
2 | 4 µg/mL (≈ 11.9 µM) | 4 µg/mL (≈ 11.9 µM) | 4 µg/mL (≈ 11.9 µM) | COC(=O)NC[C@H]1CN(c2ccc3c(c2)COC(=O)N3C)C(=O)O1 [Example 3, (S)-methyl (3-(1-methyl-2-oxo-2,4-dihydro-1H-benzo[d][1,3]oxazin-6-yl)-2-oxooxazolidin-5-yl)methylcarbamate]
3 | 8 µg/mL (≈ 22.8 µM) | 4 µg/mL (≈ 11.4 µM) | 8 µg/mL (≈ 22.8 µM) | CC(=O)NC[C@H]1CN(c2cc(F)c3c(c2)CCOC(=O)N3C)C(=O)O1 [Example 15, N-{[(SS)-3-(9-fluoro-1-methyl-2-oxo-1,2,4,5-tetrahydro-3,1-benzoxazepin-7-yl)-2-oxo-1,3-oxazolidin-5-yl]methyl}acetamide]
4 | 8 µg/mL (≈ 22.6 µM) | 2 µg/mL (≈ 5.66 µM) | 8 µg/mL (≈ 22.6 µM) | CN1C(=O)OCc2cc(N3C[C@H](CNC(=O)OCF)OC3=O)ccc21 [Example 6, (S)-Fluoromethyl (3-(1-methyl-2-oxo-2,4-dihydro-1H-benzo[d][1,3]oxazin-6-yl)-2-oxooxazolidin-5-yl)methylcarbamate]
5 | 16 µg/mL (≈ 54.9 µM) | 4 µg/mL (≈ 13.7 µM) | 4 µg/mL (≈ 13.7 µM) | CN1C(=O)OCc2cc(N3C[C@H](C(N)=O)OC3=O)ccc21 [Example 4, (R)-3-(1-methyl-2-oxo-2,4-dihydro-1H-benzo[d][1,3]oxazin-6-yl)-2-oxooxazolidine-5-carboxamide]
6 | 8 µg/mL (≈ 24 µM) | 4 µg/mL (≈ 12 µM) | 8 µg/mL (≈ 24 µM) | CCC(=O)NC[C@H]1CN(c2ccc3c(c2)COC(=O)N3C)C(=O)O1 [Example 2, (S)—N-((3-(1-methyl-2-oxo-2,4-dihydro-1H-benzo[d][1,3]oxazin-6-yl)-2-oxooxazolidin-5-yl)methyl)propionamide]
7 | 8 µg/mL (≈ 25.9 µM) | 16 µg/mL (≈ 51.7 µM) | 8 µg/mL (≈ 25.9 µM) | CN1C(=O)OCc2cc(N3C[C@H](C(N)=O)OC3=O)cc(F)c21 [Example 8, (R)-3-(8-fluoro-1-methyl-2-oxo-2,4-dihydro-1H-benzo[d][1,3]oxazin-6-yl)-2-oxooxazolidine-5-carboxamide]
8 | 32 µg/mL (≈ 100 µM) | 32 µg/mL (≈ 100 µM) | 16 µg/mL (≈ 50.1 µM) | CNC(=O)[C@H]1CN(c2ccc3c(c2)CCOC(=O)N3C)C(=O)O1 [Example 19, (5R)—N-methyl-3-(1-methyl-2-oxo-1,2,4,5-tetrahydro-3,1-benzoxazepin-7-yl)-2-oxo-1,3-oxazolidine-5-carboxamide]
9 | 8 µg/mL (≈ 23 µM) | 8 µg/mL (≈ 23 µM) | 8 µg/mL (≈ 23 µM) | CCC(=O)NC[C@H]1CN(c2ccc3c(c2)CCOC(=O)N3C)C(=O)O1 [Example 21, N-{[(5S)-3-(1-methyl-2-oxo-1,2,4,5-tetrahydro-3,1-benzoxazepin-7-yl)-2-oxo-1,3-oxazolidin-5-yl]methyl}propanamide]
10 | 8 µg/mL (≈ 22.6 µM) | 4 µg/mL (≈ 11.3 µM) | 4 µg/mL (≈ 11.3 µM) | COC(=O)NC[C@H]1CN(c2cc(F)c3c(c2)COC(=O)N3C)C(=O)O1 [Example 12, (S)-methyl (3-(8-fluoro-1-methyl-2-oxo-2,4-dihydro-1H-benzo[d][1,3]oxazin-6-yl)-2-oxooxazolidin-5-yl)methylcarbamate]
11 | 32 µg/mL (≈ 105 µM) | 32 µg/mL (≈ 105 µM) | 16 µg/mL (≈ 52.4 µM) | CN1C(=O)OCCc2cc(N3C[C@H](C(N)=O)OC3=O)ccc21 [Example 18, (5R)-3-(1-methyl-2-oxo-1,2,4,5-tetrahydro-3,1-benzoxazepin-7-yl)-2-oxo-1,3-oxazolidine-5-carboxamide]
12 | 4 µg/mL (≈ 12.5 µM) | 2 µg/mL (≈ 6.26 µM) | 4 µg/mL (≈ 12.5 µM) | CC(=O)NC[C@H]1CN(c2ccc3c(c2)COC(=O)N3C)C(=O)O1 [Example 1, (S)—N-((3-(1-methyl-2-oxo-2,4-dihydro-1H-benzo[d][1,3]oxazin-6-yl)-2-oxooxazolidin-5-yl)methyl)acetamide]
13 | 8 µg/mL (≈ 24.7 µM) | 8 µg/mL (≈ 24.7 µM) | 8 µg/mL (≈ 24.7 µM) | CNC(=O)[C@H]1CN(c2cc(F)c3c(c2)COC(=O)N3C)C(=O)O1 [Example 9, (R)-3-(8-fluoro-1-methyl-2-oxo-2,4-dihydro-1H-benzo[d][1,3]oxazin-6-yl)-N-methyl-2-oxooxazolidine-5-carboxamide]
14 | 16 µg/mL (≈ 43.6 µM) | 8 µg/mL (≈ 21.8 µM) | 16 µg/mL (≈ 43.6 µM) | COC(=O)NC[C@H]1CN(c2cc(F)c3c(c2)CCOC(=O)N3C)C(=O)O1 [Example 17, methyl [(5S)-3-(9-fluoro-1-methyl-2-oxo-1,2,4,5-tetrahydro-3,1-benzoxazepin-7-yl)-2-oxo-1,3-oxazolidin-5-yl]methylcarbamate]
15 | 32 µg/mL (≈ 97.2 µM) | 16 µg/mL (≈ 48.6 µM) | 16 µg/mL (≈ 48.6 µM) | CN1C(=O)OCc2cc(N3C[C@H](Cn4ccnn4)OC3=O)ccc21 [Example 7, (R)-6-(5-((1H-1,2,3-triazol-1-yl)methyl)-2-oxooxazolidin-3-yl)-1-methyl-1H-benzo[d][1,3]oxazin-2(4H)-one]
16 | 16 µg/mL (≈ 43.8 µM) | 8 µg/mL (≈ 21.9 µM) | 16 µg/mL (≈ 43.8 µM) | CCC(=O)NC[C@H]1CN(c2cc(F)c3c(c2)CCOC(=O)N3C)C(=O)O1 [Example 16, N-{[(5S)-3-(9-fluoro-1-methyl-2-oxo-1,2,4,5-tetrahydro-3,1-benzoxazepin-7-yl)-2-oxo-1,3-oxazolidin-5-yl]methyl}propanamide]
17 | 16 µg/mL (≈ 52.4 µM) | 4 µg/mL (≈ 13.1 µM) | 4 µg/mL (≈ 13.1 µM) | CNC(=O)[C@H]1CN(c2ccc3c(c2)COC(=O)N3C)C(=O)O1 [Example 5, (R)—N-methyl-3-(1-methyl-2-oxo-2,4-dihydro-1H-benzo[d][1,3]oxazin-6-yl)-2-oxooxazolidine-5-carboxamide]
18 | 8 µg/mL (≈ 22.9 µM) | 8 µg/mL (≈ 22.9 µM) | 8 µg/mL (≈ 22.9 µM) | COC(=O)NC[C@H]1CN(c2ccc3c(c2)CCOC(=O)N3C)C(=O)O1 [Example 22, methyl [(5S)-3-(1-methyl-2-oxo-1,2,4,5-tetrahydro-3,1-benzoxazepin-7-yl)-2-oxo-1,3-oxazolidin-5-yl]methylcarbamate]
19 | 8 µg/mL (≈ 24 µM) | 4 µg/mL (≈ 12 µM) | 8 µg/mL (≈ 24 µM) | CC(=O)NC[C@H]1CN(c2ccc3c(c2)CCOC(=O)N3C)C(=O)O1 [Example 20, N-{[(5S)-3-(1-methyl-2-oxo-1,2,4,5-tetrahydro-3,1-benzoxazepin-7-yl)-2-oxo-1,3-oxazolidin-5-yl]methyl}acetamide]
20 | 4 µg/mL (≈ 11.4 µM) | 4 µg/mL (≈ 11.4 µM) | 4 µg/mL (≈ 11.4 µM) | CCC(=O)NC[C@H]1CN(c2cc(F)c3c(c2)COC(=O)N3C)C(=O)O1 [Example 11, (S)—N-((3-(8-fluoro-1-methyl-2-oxo-2,4-dihydro-1H-benzo[d][1,3]oxazin-6-yl)-2-oxooxazolidin-5-yl)methyl)propionamide]
